# Results as given in patent US20120220562A1, “Anti-Viral Compounds” (ABBOTT LABAORATORIES, priority 2011, published 2012).
# Test system: HCV 1b-Con1 replicon
# Assay: HCV 1b-Con1 replicon assay in the presence of 5% FBS
# Type: cell-based
# Settings: Hepatitis C virus
row,Compound,EC50 [nM]
1,"COC(=O)N[C@H](C(=O)N1C[C@H](OC)C[C@H]1c1nc2cc([C@H]3CC[C@H](c4ccc5[nH]c([C@@H]6C[C@@H](OC)CN6C(=O)[C@@H](NC(=O)OC)C(C)C)nc5c4)N3c3cc(F)c(N4CCCCC4)c(F)c3)ccc2[nH]1)C(C)C [Example 5.5, methyl {(2S)-1-[(2S,4R)-2-{5-[(2R,5R)-1-[3,5-difluoro-4-(piperidin-1-yl)phenyl]-5-{2-[(2S,4R)-4-methoxy-1-{(2S)-2-[(methoxycarbonyl)amino]-3-methylbutanoyl}pyrrolidin-2-yl]-1H-benzimidazol-5-yl}pyrrolidin-2-yl]-1H-benzimidazol-2-yl}-4-methoxypyrrolidin-1-yl]-3-methyl-1-oxobutan-2-yl}carbamate]",< 0.1
2,"COC(=O)N[C@H](C(=O)N1CCC[C@H]1c1nc2cc([C@H]3CC[C@H](c4ccc5[nH]c([C@@H]6CCCN6C(=O)[C@@H](NC(=O)OC)C6CCOCC6)nc5c4)N3c3cc(F)c(N4CCC(c5ccccc5)CC4)c(F)c3)ccc2[nH]1)C1CCOCC1 [Example 3.23, dimethyl ({(2R,5R)-1-[3,5-difluoro-4-(4-phenylpiperidin-1-yl)phenyl]pyrrolidine-2,5-diyl}bis{1H-benzimidazole-5,2-diyl(2S)pyrrolidine-2,1-diyl [(1S)-2-oxo-1-(tetrahydro-2H-pyran-4-yl)ethane-2,1-diyl]})biscarbamate]",< 0.1
3,"COC(=O)N[C@H](C(=O)N1CCC[C@H]1c1nc2cc([C@H]3CC[C@H](c4ccc5[nH]c([C@@H]6CCCN6C(=O)[C@@H](NC(=O)OC)C(C)C)nc5c4)N3c3ccc(OCc4ccccc4)cc3)ccc2[nH]1)C(C)C [Example 4.41, methyl {(2S)-1-[(2S)-2-{5-[(2R,5R)-1-[4-(benzyloxy)phenyl]-5-{2-[(2S)-1-{(2S)-2-[(methoxycarbonyl)amino]-3-methylbutanoyl}pyrrolidin-2-yl]-1H-benzimidazol-5-yl}pyrrolidin-2-yl]-1H-benzimidazol-2-yl}pyrrolidin-1-yl]-3-methyl-1-oxobutan-2-yl}carbamate]",< 0.1
4,"COC(=O)N[C@H](C(=O)N1CCC[C@H]1c1nc2ccc([C@H]3CC[C@H](c4ccc5nc([C@@H]6CCCN6C(=O)[C@@H](NC(=O)OC)C(C)C)[nH]c5c4)N3c3cc(F)c(C4CC4)c(F)c3)cc2[nH]1)C(C)C [Example 4.15, methyl {(2S)-1-[(2S)-2-{6-[(2R,5R)-1-(4-cyclopropyl-3,5-difluorophenyl)-5-{2-[(2S)-1-{(2S)-2-[(methoxycarbonyl)amino]-3-methylbutanoyl}pyrrolidin-2-yl]-1H-benzimidazol-6-yl}pyrrolidin-2-yl]-1H-benzimidazol-2-yl}pyrrolidin-1-yl]-3-methyl-1-oxobutan-2-yl}carbamate]",< 0.1
5,"COC(=O)N[C@H](C(=O)N1CCC[C@H]1c1nc2cc([C@H]3CC[C@H](c4ccc5[nH]c([C@@H]6CCCN6C(=O)[C@@H](NC(=O)OC)C(C)C)nc5c4)N3c3cc(F)c(N4CC5CCC4CC5)c(F)c3)ccc2[nH]1)C(C)C [Example 4.21, methyl {(2S)-1-[(2S)-2-{5-[(2R,5R)-1-[4-(2-azabicyclo[2.2.2]oct-2-yl)-3,5-difluorophenyl]-5-{2-[(2S)-1-{(2S)-2-[(methoxycarbonyl)amino]-3-methylbutanoyl}pyrrolidin-2-yl]-1H-benzimidazol-5-yl}pyrrolidin-2-yl]-1H-benzimidazol-2-yl}pyrrolidin-1-yl]-3-methyl-1-oxobutan-2-yl}carbamate]",< 0.1
6,"CCOc1ccc(N2[C@@H](c3ccc4nc([C@@H]5CCCN5C(=O)[C@@H](NC(=O)OC)C(C)C)[nH]c4c3)CC[C@@H]2c2ccc3nc([C@@H]4CCCN4C(=O)[C@@H](NC(=O)OC)C(C)C)[nH]c3c2)cc1 [Example 4.10, methyl {(2S)-1-[(2S)-2-{6-[(2R,5R)-1-(4-ethoxyphenyl)-5-{2-[(2S)-1-{(2S)-2-[(methoxycarbonyl)amino]-3-methylbutanoyl}pyrrolidin-2-yl]-1H-benzimidazol-6-yl}pyrrolidin-2-yl]-1H-benzimidazol-2-yl}pyrrolidin-1-yl]-3-methyl-1-oxobutan-2-yl}carbamate]",< 0.1
7,"COC(=O)N[C@H](C(=O)N1CCC[C@H]1c1nc2cc([C@H]3CC[C@H](c4cc5nc([C@@H]6CCCN6C(=O)[C@@H](NC(=O)OC)C6CCCC6)[nH]c5cc4F)N3c3cc(F)c(N4CCCCC4)c(F)c3)c(F)cc2[nH]1)C1CCCC1 [Example 3.39, dimethyl ({(2R,5R)-1-[3,5-difluoro-4-(piperidin-1-yl)phenyl]pyrrolidine-2,5-diyl}bis{(6-fluoro-1H-benzimidazole-5,2-diyl)(2S)pyrrolidine-2,1-diyl[(1S)-1-cyclopentyl-2-oxoethane-2,1-diyl]})biscarbamate]",< 0.1
8,"COC(=O)N[C@H](C(=O)N1C[C@@H](OC)C[C@H]1c1nc2cc([C@H]3CC[C@H](c4ccc5[nH]c([C@@H]6C[C@H](OC)CN6C(=O)[C@@H](NC(=O)OC)C(C)C)nc5c4)N3c3cc(F)c(N4CCCCC4)c(F)c3)ccc2[nH]1)C(C)C [Example 3.7, methyl {(2S)-1-[(2S,4S)-2-{5-[(2R,5R)-1-[3,5-difluoro-4-(piperidin-1-yl)phenyl]-5-{2-[(2S,4S)-4-methoxy-1-{(2S)-2-[(methoxycarbonyl)amino]-3-methylbutanoyl}pyrrolidin-2-yl]-1H-benzimidazol-5-yl}pyrrolidin-2-yl]-1H-benzimidazol-2-yl}-4-methoxypyrrolidin-1-yl]-3-methyl-1-oxobutan-2-yl}carbamate]",< 0.1
9,"COC(=O)N[C@H](C(=O)N1CCC[C@H]1c1nc2cc([C@H]3CC[C@H](c4cc5nc([C@@H]6CCCN6C(=O)[C@@H](NC(=O)OC)C(C)C)[nH]c5cc4F)N3c3cc(F)c(N4CCO[C@@H](c5ccccc5)C4)c(F)c3)c(F)cc2[nH]1)C(C)C [Example 4.55, methyl {(2S)-1-[(2S)-2-{5-[(2R,5R)-1-{3,5-difluoro-4-[(2S)-2-phenylmorpholin-4-yl]phenyl}-5-{6-fluoro-2-[(2S)-1-{(2S)-2-[(methoxycarbonyl)amino]-3-methylbutanoyl}pyrrolidin-2-yl]-1H-benzimidazol-5-yl}pyrrolidin-2-yl]-6-fluoro-1H-benzimidazol-2-yl}pyrrolidin-1-yl]-3-methyl-1-oxobutan-2-yl}carbamate]",< 0.1
10,"COC(=O)N[C@H](C(=O)N1[C@H](c2nc3cc([C@H]4CC[C@H](c5cc6nc([C@@H]7C[C@@H]8CCC[C@@H]8N7C(=O)[C@@H](NC(=O)OC)[C@@H](C)OC)[nH]c6cc5F)N4c4cc(F)c(N5CCCCC5)c(F)c4)c(F)cc3[nH]2)C[C@@H]2CCC[C@@H]21)[C@@H](C)OC [Example 3.38, methyl {(2S,3R)-1-[(2S,3aS,6aS)-2-{5-[(2R,5R)-1-[3,5-difluoro-4-(piperidin-1-yl)phenyl]-5-(6-fluoro-2-{(2S,3aS,6aS)-1-[N-(methoxycarbonyl)-O-methyl-L-threonyl]octahydrocyclopenta[b]pyrrol-2-yl}-1H-benzimidazol-5-yl)pyrrolidin-2-yl]-6-fluoro-1H-benzimidazol-2-yl}hexahydrocyclopenta[b]pyrrol-1(2H)-yl]-3-methoxy-1-oxobutan-2-yl}carbamate]",< 0.1
11,"COC(=O)N[C@H](C(=O)N1CCC[C@H]1c1nc2cc([C@H]3CC[C@H](c4ccc5[nH]c([C@@H]6CCCN6C(=O)[C@@H](NC(=O)OC)C(C)C)nc5c4)N3c3cc(F)c(N4CCC(C(F)(F)F)CC4)c(F)c3)ccc2[nH]1)C(C)C [Example 5.8, methyl {(2S)-1-[(2S)-2-{5-[(2R,5R)-1-{3,5-difluoro-4-[4-(trifluoromethyl)piperidin-1-yl]phenyl}-5-{2-[(2S)-1-{(2S)-2-[(methoxycarbonyl)amino]-3-methylbutanoyl}pyrrolidin-2-yl]-1H-benzimidazol-5-yl}pyrrolidin-2-yl]-1H-benzimidazol-2-yl}pyrrolidin-1-yl]-3-methyl-1-oxobutan-2-yl}carbamate]",< 0.1
12,"COC(=O)N[C@H](C(=O)N1CCC[C@H]1c1nc(-c2ccc([C@H]3CC[C@H](c4ccc(-c5c[nH]c([C@@H]6CCCN6C(=O)[C@@H](NC(=O)OC)C(C)C)n5)cc4)N3c3cc(F)c(N4CCC(c5ccccc5)CC4)c(F)c3)cc2)c[nH]1)C(C)C [Example 9, methyl {(2S)-1-[(2S)-2-(4-{4-[(2R,5R)-1-[3,5-difluoro-4-(4-phenylpiperidin-1-yl)phenyl]-5-(4-{2-[(2S)-1-{(2S)-2-[(methoxycarbonyl)amino]-3-methylbutanoyl}pyrrolidin-2-yl]-1H-imidazol-4-yl}phenyl)pyrrolidin-2-yl]phenyl}-1H-imidazol-2-yl)pyrrolidin-1-yl]-3-methyl-1-oxobutan-2-yl}carbamate]",< 0.1
13,"CCC1(COc2ccc(N3[C@@H](c4ccc5[nH]c([C@@H]6CCCN6C(=O)[C@@H](NC(=O)OC)C(C)C)nc5c4)CC[C@@H]3c3ccc4[nH]c([C@@H]5CCCN5C(=O)[C@@H](NC(=O)OC)C(C)C)nc4c3)cc2)COC1 [Example 1.7, methyl {(2S)-1-[(2S)-2-{5-[(2R,5R)-1-{4-[(3-ethyloxetan-3-yl)methoxy]phenyl}-5-{2-[(2S)-1-{(2S)-2-[(methoxycarbonyl)amino]-3-methylbutanoyl}pyrrolidin-2-yl]-1H-benzimidazol-5-yl}pyrrolidin-2-yl]-1H-benzimidazol-2-yl}pyrrolidin-1-yl]-3-methyl-1-oxobutan-2-yl}carbamate]",< 0.1
14,"COC(=O)N[C@H](C(=O)N1CCC[C@H]1c1nc2cc([C@H]3CC[C@H](c4ccc5[nH]c([C@@H]6CCCN6C(=O)[C@@H](NC(=O)OC)C6CCOCC6)nc5c4)N3c3cc(F)c(N4CCC(c5ccccc5)CC4)c(F)c3)ccc2[nH]1)C(C)C [Example 11.1, methyl [(1S)-2-[(2S)-2-{5-[(2R,5R)-1-[3,5-difluoro-4-(4-phenylpiperidin-1-yl)phenyl]-5-{2-[(2S)-1-{(2S)-2-[(methoxycarbonyl)amino]-3-methylbutanoyl}pyrrolidin-2-yl]-1H-benzimidazol-5-yl}pyrrolidin-2-yl]-1H-benzimidazol-2-yl}pyrrolidin-1-yl]-2-oxo-1-(tetrahydro-2H-pyran-4-yl)ethyl]carbamate]",< 0.1
